Data taken from PubChem BioAssay AID179 (DTP/NCI, 2004).
Calls of active or inactive are those of the source.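 Rule for the calls: active = compounds giving half or more protection of infected cells from virus-caused growth loss, again on retest; inactive = the rest.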 Where a SMILES comes first, the peptide text is derived from it.

System: CEM cells HIV-1 protection, formazan growth assay
Assay: NCI AIDS Antiviral Assay
Conditions: for IC50: measured here: growth of uninfected CEM cells
Summary of the method: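 Human CEM cells, uninfected and HIV-1-infected, exposed to five drug concentrations; growth measured by soluble formazan assay and scored as percent protection from infection, with protecting compounds retested.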

| Structure (SMILES) | EC50 | IC50 | outcome |
| --- | --- | --- | --- |
| CCCOC(C(=O)OC1CCC2CCC1N2C)(c1ccccc1)c1ccccc1 (stereo not drawn) | > 200 µM | 28.8 µM |  |
| COc1ccc(C(c2ccccc2)C(C)C(=O)c2c(C)cc(C)cc2C)cc1 (stereo not drawn) | > 19.5 µM | > 19.5 µM |  |
| COc1ccc2nc3cccc([N+](=O)[O-])c3c(NCCCO)c2c1 | > 2 µM | 0.017 µM |  |
| CCOC(=O)C1C(=O)CC(O)(c2ccccc2)C(C(=O)OCC)C1c1ccc(N(C)C)cc1 (stereo not drawn) | > 200 µM | 4.07 µM |  |
| CN(O)C(=O)Cc1ccc(OCc2cccc(Cl)c2)cc1 | > 200 µM | > 200 µM |  |
| CCOc1ccc(/C(C)=N/NC(N)=S)cc1 |  |  | inactive |
| CN(C)Cc1cc(C(=O)/C=C/c2c(F)cccc2Cl)cc(CN(C)C)c1O | > 20 µM | 4.68 µM |  |
| CCCn1c(SCC)c2cc3cc4ccccc4cc3cc2c1-c1nc(F)nc(F)n1 | > 30.9 µM | 22.4 µM |  |
| C/C(CC(=O)Nc1cccc([N+](=O)[O-])c1)=N/NC(N)=S | > 447 µM | > 447 µM |  |
| COc1ccc(=O)n(C)n1 | > 1780 µM | 1450 µM |  |
| COc1cc(OC)c2ccc(=O)oc2c1 | > 91.2 µM | > 91.2 µM |  |
| CCC(NC(C)c1ccccc1)C(O)c1ccc(OCc2ccccc2)c(OCc2ccccc2)c1 (stereo not drawn) | > 200 µM | 10.7 µM |  |
| N#Cc1c(N2CCCC2)[nH]c(=O)n(-c2ccccc2)c1=S | > 200 µM | > 200 µM |  |
| CC(=O)OCCCOCn1c(Cc2ccccc2)c(C(C)C)c(=O)[nH]c1=O | 0.0794 µM | 89.1 µM |  |
| O=S1(=O)Cc2ccccc21 | > 1170 µM | 589 µM |  |
| C[N+](C)=C1C=CC(=C2C=C(c3ccccc3)Oc3ccccc32)C=C1 | > 200 µM | 1.17 µM |  |
| C[C@@H]1O[C@]2(O)[C@@H]3CCCN3S(=O)(=O)CCN2C1=O | > 912 µM | > 912 µM |  |
| COc1cc(N)ccc1Nc1c2ccccc2nc2ccccc12 | > 200 µM | 1.02 µM |  |
| COC[C@H](C)N=CN1CCc2ccccc2C1 | > 1070 µM | > 1070 µM |  |
| CN(C)c1ccc(/C=C(\NC(=O)c2ccccc2)C2NC(Cc3c[nH]c4ccccc34)C(=O)O2)cc1 (stereo not drawn) | > 100 µM | 8.71 µM |  |
| COC1/C=C/OC2(C)Oc3c(C)c(O)c4c(O)c(c(/C=N/N5CCC(N6CCCCC6)CC5)c(O)c4c3C2=O)NC(=O)C(C)=C/C=C/C(C)C(O)C(C)C(O)C(C)C(OC(C)=O)C1C (stereo not drawn) | > 75.9 µM | > 75.9 µM |  |
| COC(=O)CCC12CCC(O1)c1ccccc12 (stereo not drawn) | > 200 µM | > 200 µM |  |

| Structure (SMILES) | EC50 | IC50 | outcome |
| --- | --- | --- | --- |
| COC(C(=O)C(O)C(C)O)C1Cc2cc3cc(OC4CC(OC5CC(O)C(O)C(C)O5)C(O)C(C)O4)c(C)c(O)c3c(O)c2C(=O)C1OC1CC(OC2CC(O)C(OC3CC(C)(O)C(O)C(C)O3)C(C)O2)C(O)C(C)O1 (stereo not drawn) |  |  | inactive |
| Nc1c2ccccc2nc2nccnc12 | > 26.3 µM | > 26.3 µM |  |
| NC(N)=N/N=C/c1c(Cl)nc2n1CCS2 | > 200 µM | 102 µM |  |
| COc1cc2c(c(OC)c1OC)-c1ccc(NCCCNc3ccc4c(cc3=O)C(NC(C)=O)CCc3cc(OC)c(OC)c(OC)c3-4)c(=O)cc1C(NC(C)=O)CC2 (stereo not drawn) |  |  | inactive |
| O=C1CSCN1N1CSCC1=O | > 200 µM | > 200 µM |  |
| COC(=O)/C(=N\Nc1nnc(C)n1N)C(C#N)c1ccc(Cl)cc1 (stereo not drawn) | > 724 µM | 372 µM |  |
| O=S(=O)(ON=C1C=CC(=NOS(=O)(=O)c2ccccc2)C=C1)c1ccccc1 | > 200 µM | 1.02 µM |  |
| O=C(c1cccs1)N(C(=O)N1CCC(c2ccccc2)CC1)c1ccccc1 | > 200 µM | > 200 µM |  |
| CNC1C(O)CC(OC2C/C=C(\C)C/C(C)=C/C=C/CCC(C)CNC(=O)/C=C/C=C/C2C)OC1C (stereo not drawn) | > 37.2 µM | 1.95 µM |  |
| CCOC(=O)CNC(=O)c1ccccc1SC(=O)CCCC[n+]1ccccc1 | > 20 µM | 0.363 µM |  |
| COc1cccc2c(=O)oc(-c3ccc(C(C)(C)C)cc3)nc12 | > 200 µM | 64.6 µM |  |
| O=C1c2cccnc2S(=O)(=O)N1c1ccc(Br)cc1 | > 200 µM | 74.1 µM |  |
| COC(=O)c1c(C(=O)OC)c(C(c2ccccc2)c2ccccc2)n(-c2ccccc2)c1Cl | > 200 µM | 64.6 µM |  |
| CC(C)CC(=O)CC(C)[C@]1(CCCOCc2ccccc2)C(=O)N2CCC3(C[C@@]24CCC[C@H]41)OCCO3 (stereo partly drawn) | > 200 µM | 35.5 µM |  |
| COc1ccc(NC(=O)C2C(=O)N(c3ccc(OC)cc3)C(=O)/C2=N\NC(N)=O)cc1 (stereo not drawn) | > 61.7 µM | > 61.7 µM |  |
| CCOC(=O)C1=C(Nc2cccc3ccccc23)OCC1=O |  |  | inactive |
| CC1(C)CC2(S(=O)(=O)c3ccccc3)ON1CC2S(=O)(=O)c1ccccc1 (stereo not drawn) |  |  | inactive |
| O=C1CN(c2ccccc2)C(=O)CN1CCN1CC(=O)N(c2ccccc2)CC1=O | > 200 µM | > 200 µM |  |
| O=P(CP(=O)(c1ccccc1)c1ccccc1)(c1ccccc1)c1ccccc1.[CH3][Sn]([CH3])([Cl])[Cl] |  |  | inactive |
| O=C1NC2(CCCCC2)OC12CCCCC2 | > 6.46 µM | > 6.46 µM |  |
| COP(C)(=O)/C(Cc1ccccc1)=N\O (stereo not drawn) | > 200 µM | > 200 µM |  |
| COc1ccc(C=C2C(=O)OC(C)(C)OC2=O)cc1OC | > 170 µM | > 170 µM |  |

| Structure (SMILES) | EC50 | IC50 | outcome |
| --- | --- | --- | --- |
| CCOC(=O)/C=C/c1ccc(OC)cc1 | > 34.7 µM | > 34.7 µM |  |
| CN1C(=O)C(C)(C)C2(SC(C)(C)C2(C)C)N(C)C1=S (stereo not drawn) | > 24 µM | > 24 µM |  |
| Oc1ccc(C2CC(O)c3ccccc3O2)cc1 (stereo not drawn) |  |  | inactive |
| CNCCCCN(C)/[N+]([O-])=N\O | > 8910 µM | 4070 µM |  |
| C/C(CC1C2CCCC1C2)=N\NC(N)=O (stereo not drawn) | > 100 µM | > 100 µM |  |
| Cn1c(=O)cc(/C=C/c2ccnc3ccccc23)c2ccccc21 | > 200 µM | > 200 µM |  |
| CCCCc1ccc(C(N)=O)nc1 | > 200 µM | > 200 µM |  |
| O=[N+]([O-])c1ccc(NC(=S)N=Nc2c(O)[nH]c3ccccc23)cc1 | > 200 µM | 15.5 µM |  |
| Cc1c2[nH]c(c1CCC(=O)O)/C=c1\[n-]/c(c(C)c1CCC(=O)O)=C\c1[n-]c(c(C)c1C(C)O)/C=c1\[nH]/c(c(C)c1C(C)O)=C\2.[Cl][Pt+2][Cl] (stereo not drawn) | > 20.9 µM | 14.5 µM |  |
| CCOP(=O)(OCC)C(C)(C)N(C)/C(F)=N/C(F)(F)F | > 200 µM | > 200 µM |  |
| COc1ccc(C2S/C(=C\c3ccc(O)cc3)C(=O)N2NC(=O)Cc2ccccc2)cc1 (stereo not drawn) | > 112 µM | > 112 µM |  |
| Cc1ccccc1NC(=O)Cc1csc2[n+]1C(=O)/C(=C\c1ccc3c(c1)OCO3)S2 | > 200 µM | 38.9 µM |  |
| O=C1C(Cl)N(c2ccc([N+](=O)[O-])cc2)C1c1c[nH]c2ccccc12 (stereo not drawn) | > 145 µM | 18.2 µM |  |
| COC(=O)/C=C1\C(CO[Si](C)(C)C(C)(C)C)OC(n2ccc(=O)[nH]c2=O)C1O[Si](C)(C)C(C)(C)C (stereo not drawn) | > 200 µM | 8.32 µM |  |
| CC1NC(=O)CNC(=O)CNC(=O)C(Cc2ccc(O)cc2)NC(=O)C(C(C)C)NC(=O)C(C)NC1=O (stereo not drawn) (cyclo(GGAAVY); configuration not given here) |  |  | inactive |
| CC(=O)OC1COC(n2c(=S)n(-c3ccc(C)cc3)c(=O)c3ccccc32)C(OC(C)=O)C1OC(C)=O (stereo not drawn) | > 25.7 µM | > 25.7 µM |  |
| O=C(/C=C/c1ccc(-c2ccccc2)cc1)c1ccccc1 | > 13.2 µM | > 13.2 µM |  |
| COC(=O)CSSCC(=O)OC |  |  | inactive |
| C#CCOCn1ccc(=O)[nH]c1=O | > 200 µM | > 200 µM |  |
| CCCN=C(NC(=O)c1ccc(Cl)cc1)SC | > 200 µM | > 200 µM |  |
| CCOC(=O)C(NC(=O)NCc1ccc(F)cc1)C(F)(F)F (stereo not drawn) | > 200 µM | 81.3 µM |  |
| CN/N=C(\C)C(CN1CCCCC1)C(C1=C(O)c2ccccc2OC1)c1ccccc1 (stereo not drawn) | > 29.5 µM | > 29.5 µM |  |

| Structure (SMILES) | EC50 | IC50 | outcome |
| --- | --- | --- | --- |
| C=CCN1CCC(OC(=O)C(O)(C#CC)C2CCCC2)CC1 (stereo not drawn) | > 200 µM | > 200 µM |  |
| CC(=O)Nc1ccccc1/C=C/c1ccccn1 | > 1050 µM | 407 µM |  |
| CCOC(=O)C1=C(O)C2C3CC4C2C(O)=C(C(=O)OCC)C2C1C3C42 (stereo not drawn) | > 200 µM | 93.3 µM |  |
| CCCCOC(=O)C(=O)C(CCC(=O)c1ccc(C)cc1)C(=O)C=C(C)C (stereo not drawn) | > 69.2 µM | > 69.2 µM |  |
| CCCCc1nc(C)oc1C(C)C | > 200 µM | > 200 µM |  |
| CC(=O)SCCC(NC(=S)Nc1ccccc1)P(=O)(Oc1ccccc1)Oc1ccccc1 (stereo not drawn) | > 200 µM | 49 µM |  |
| CCCCCCCCCCCCCCCC(=O)OC1C(O)C(O)C(O)C(O)C12CO2 (stereo not drawn) | > 20 µM | 7.08 µM |  |
| COC(=O)C(C)(C)C(OP1(=S)N(C)CCN1C)=C(C)C | > 155 µM | > 155 µM |  |
| CC[P+](C#Cc1ccccc1)(c1ccccc1)c1ccccc1 | > 20 µM | 0.49 µM |  |
| O=C1CCCC2=C1CC1=C(CCCC1=O)N2c1ccccc1 | > 100 µM | > 100 µM |  |
| CCn1ccc(=O)nc1 | > 200 µM | > 200 µM |  |
| O=C(C[P+](c1ccccc1)(c1ccccc1)c1ccccc1)C[P+](c1ccccc1)(c1ccccc1)c1ccccc1 | > 200 µM | 0.759 µM |  |
| CC(C)[C@@H]1CC[C@@H](C)C[C@H]1OC(=O)c1c2n(c3ccccc13)C[C@H]1OC(C)(C)O[C@@H]21 | > 100 µM | 77.6 µM |  |
| CCCCN1C(=N)C2(C#N)C(CCC)C(CC)C1C2(C#N)C#N (stereo not drawn) | > 200 µM | 158 µM |  |
| CCOP(=O)(OCC)/C(C#N)=C/c1c[nH]c2ccccc12 | > 200 µM | 178 µM |  |
| Cc1cc2n(n1)C(C)(C)C(=O)Nc1ccc(Cl)cc1-2 | > 49 µM | 33.9 µM |  |
| Cc1ccc(C(=O)Nc2ccc(S(=O)(=O)O)c3cc(S(=O)(=O)O)cc(S(=O)(=O)O)c23)cc1NC(=S)Nc1cc(C(=O)Nc2ccc(S(=O)(=O)O)c3cc(S(=O)(=O)O)cc(S(=O)(=O)O)c23)ccc1C | 132 µM | 204 µM |  |
| Cc1c2ccccc2nc(CSc2ccccc2N)[n+]1[O-] | 64.6 µM | > 200 µM |  |
| COc1cccc(C2Nc3ccccc3C(=O)N2N2CCOCC2)c1 (stereo not drawn) | > 200 µM | > 200 µM |  |
| O=C1NC(N2CCCCC2)=N/C1=C\c1ccc(Cl)cc1 | > 200 µM | 97.7 µM |  |
